Measurements reported in publication PMC7932521, “2-aminobenzimidazoles for leishmaniasis: From initial hit discovery to in vivo profiling” (PLoS Neglected Tropical Diseases, 2021).
Like-named read-outs stand apart in the source and are kept apart here.

Legend:
[1] = target: T1, A1 (Homo sapiens, UniProt P30542); test: Bioprofiling 6pt Antag A1 CHO; format: cell-based; settings: antagonist readout vs N6-Cyclopentyladenosine (CPA)
T1 construct: expressed in transfected cells; host or cells: CHO
T1 sequence (P30542 1-326): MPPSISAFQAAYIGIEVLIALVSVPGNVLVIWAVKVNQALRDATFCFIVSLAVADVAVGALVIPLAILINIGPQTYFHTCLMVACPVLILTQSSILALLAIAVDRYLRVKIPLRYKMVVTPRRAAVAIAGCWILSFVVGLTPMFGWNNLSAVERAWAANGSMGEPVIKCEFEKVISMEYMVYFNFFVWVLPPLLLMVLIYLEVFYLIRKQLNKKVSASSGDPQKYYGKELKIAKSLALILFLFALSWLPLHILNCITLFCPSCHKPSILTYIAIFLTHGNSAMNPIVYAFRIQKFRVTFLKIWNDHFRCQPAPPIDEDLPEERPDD
Method: (§1) The compounds were evaluated across a panel of 20 liability targets (37 functional assays) which included functional cell-based GPCRs and ion channels in both agonist and antagonist readout, measuring calcium flux and biochemical functional assays for nuclear hormone receptors and phosphodiesterases using TR-FRET format, in a 6 point 1:3 dilution dose series (maximum final concentration of 10 μM).

[2] = Experimental distribution coefficient (eLogD); format: physicochemical; settings: for chromatographic logD: reverse stationary phase HPLC column (Ascentis RP-Amide)
Outline: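 Lipophilicity derived from retention time on an Ascentis RP-Amide reverse-phase column by LC-MS/MS, compounds at 1.0 μg/mL with internal standard; mobile phases 5% methanol in 10mM ammonium acetate pH 7.4 and 100% methanol. LogD calculated from a linear calibration of eight standards' retention times against known LogD.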

[3] = target: T2, 5-HT2A (Homo sapiens, UniProt P28223); test: Bioprofiling 6pt Antag 5-HT2A CHO; format: cell-based; settings: antagonist readout vs Serotonin (5-HT)
T2 construct: expressed in transfected cells; host or cells: CHO
Method: as §1

[4] = Parallel artificial membrane permeability assay (PAMPA); format: in vitro ADME
Outline: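 Compounds at 10μM final in PBS pH 6.5 (donor) against PBS pH 7.4 (acceptor) across lipid-coated membranes, incubated 5 h at 37°C. Donor, acceptor and T0 levels measured by LC-MS/MS to derive effective permeability (Pe); n = 3.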

[5] = target: T3, CB1 (Homo sapiens, UniProt P21554); test: Bioprofiling 6pt Ag CB1 CHO; format: cell-based; settings: agonist readout
T3 construct: expressed in transfected cells; host or cells: CHO
Method: as §1

[6] = target: T4, ETA (Homo sapiens, UniProt P25101); test: Bioprofiling 6pt Antag ETA CHO; format: cell-based; settings: antagonist readout vs Endothelin-1 (ET-1)
T4 construct: expressed in transfected cells; host or cells: CHO
T4 sequence (P25101 21-427): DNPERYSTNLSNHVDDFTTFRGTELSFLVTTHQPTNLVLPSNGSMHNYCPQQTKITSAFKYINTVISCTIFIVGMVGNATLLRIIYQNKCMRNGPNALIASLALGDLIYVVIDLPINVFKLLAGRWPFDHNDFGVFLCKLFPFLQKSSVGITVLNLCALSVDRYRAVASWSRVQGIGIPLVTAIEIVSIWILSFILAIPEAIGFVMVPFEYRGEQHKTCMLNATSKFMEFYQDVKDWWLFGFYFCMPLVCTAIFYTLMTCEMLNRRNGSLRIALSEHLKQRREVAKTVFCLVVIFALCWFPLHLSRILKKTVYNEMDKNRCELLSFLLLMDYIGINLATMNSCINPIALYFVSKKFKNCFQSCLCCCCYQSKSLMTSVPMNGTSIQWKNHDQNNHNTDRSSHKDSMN
Method: as §1

[7] = target: PDE4B2 (Homo sapiens, UniProt Q07343); test: Bioprofiling 6pt Antag PDE4B2; format: biochemical; settings: substrate cAMP
Method: as §1

[8] = target: T2, 5-HT2A; test: Bioprofiling 6pt Ag 5-HT2A CHO; format: cell-based; settings: agonist readout
Method: as §1

[9] = target: T5, PPARgamma (Homo sapiens, UniProt P37231); test: Bioprofiling 6pt Ag PPARgamma; format: biochemical; settings: agonist readout
T5 sequence (P37231 1-505): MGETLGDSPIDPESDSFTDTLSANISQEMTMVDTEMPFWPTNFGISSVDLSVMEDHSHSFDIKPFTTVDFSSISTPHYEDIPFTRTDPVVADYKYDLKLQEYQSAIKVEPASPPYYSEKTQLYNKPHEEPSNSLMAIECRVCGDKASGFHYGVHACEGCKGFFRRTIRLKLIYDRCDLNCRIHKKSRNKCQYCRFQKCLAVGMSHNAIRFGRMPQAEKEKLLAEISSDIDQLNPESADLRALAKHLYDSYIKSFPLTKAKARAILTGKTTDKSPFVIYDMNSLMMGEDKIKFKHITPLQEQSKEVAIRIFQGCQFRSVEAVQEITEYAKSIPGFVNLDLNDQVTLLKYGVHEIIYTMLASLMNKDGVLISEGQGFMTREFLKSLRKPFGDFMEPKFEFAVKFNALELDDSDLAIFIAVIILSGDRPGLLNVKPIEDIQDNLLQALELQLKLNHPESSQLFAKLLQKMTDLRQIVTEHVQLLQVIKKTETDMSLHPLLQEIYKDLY
Method: as §1

[10] = PAMPA, S1 Data, read-out: PAMPA Pe
[11] = passive permeability, read-out: PAMPA

Sequence of PDE4B2 (Q07343 1-564 isoform Q07343-2): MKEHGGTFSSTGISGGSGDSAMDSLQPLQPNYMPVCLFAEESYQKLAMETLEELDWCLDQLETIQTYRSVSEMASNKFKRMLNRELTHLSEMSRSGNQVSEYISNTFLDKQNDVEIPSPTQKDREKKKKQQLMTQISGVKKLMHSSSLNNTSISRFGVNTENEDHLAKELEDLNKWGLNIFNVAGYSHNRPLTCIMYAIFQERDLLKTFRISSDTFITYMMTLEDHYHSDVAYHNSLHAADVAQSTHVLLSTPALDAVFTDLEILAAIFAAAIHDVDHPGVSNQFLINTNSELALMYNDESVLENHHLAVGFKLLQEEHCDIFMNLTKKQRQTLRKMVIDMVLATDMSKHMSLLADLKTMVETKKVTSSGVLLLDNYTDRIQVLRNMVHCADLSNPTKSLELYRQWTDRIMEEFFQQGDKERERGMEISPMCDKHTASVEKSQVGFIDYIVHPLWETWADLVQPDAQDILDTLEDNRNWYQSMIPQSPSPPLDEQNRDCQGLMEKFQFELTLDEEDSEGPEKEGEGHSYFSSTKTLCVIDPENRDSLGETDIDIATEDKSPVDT
T2 sequence (P28223 whole entry): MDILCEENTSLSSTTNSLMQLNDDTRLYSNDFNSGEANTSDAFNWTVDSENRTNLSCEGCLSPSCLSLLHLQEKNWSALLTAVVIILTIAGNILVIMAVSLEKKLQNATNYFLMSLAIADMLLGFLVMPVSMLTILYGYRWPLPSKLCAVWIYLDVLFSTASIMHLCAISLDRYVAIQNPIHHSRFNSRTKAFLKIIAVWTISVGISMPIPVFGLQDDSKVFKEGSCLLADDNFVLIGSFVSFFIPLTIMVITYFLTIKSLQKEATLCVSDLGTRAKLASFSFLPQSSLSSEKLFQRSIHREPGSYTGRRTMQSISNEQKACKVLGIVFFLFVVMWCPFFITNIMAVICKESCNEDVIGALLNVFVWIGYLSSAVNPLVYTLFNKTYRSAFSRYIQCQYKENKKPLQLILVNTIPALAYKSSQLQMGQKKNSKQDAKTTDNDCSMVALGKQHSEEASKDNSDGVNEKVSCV
T3 sequence (P21554 whole entry): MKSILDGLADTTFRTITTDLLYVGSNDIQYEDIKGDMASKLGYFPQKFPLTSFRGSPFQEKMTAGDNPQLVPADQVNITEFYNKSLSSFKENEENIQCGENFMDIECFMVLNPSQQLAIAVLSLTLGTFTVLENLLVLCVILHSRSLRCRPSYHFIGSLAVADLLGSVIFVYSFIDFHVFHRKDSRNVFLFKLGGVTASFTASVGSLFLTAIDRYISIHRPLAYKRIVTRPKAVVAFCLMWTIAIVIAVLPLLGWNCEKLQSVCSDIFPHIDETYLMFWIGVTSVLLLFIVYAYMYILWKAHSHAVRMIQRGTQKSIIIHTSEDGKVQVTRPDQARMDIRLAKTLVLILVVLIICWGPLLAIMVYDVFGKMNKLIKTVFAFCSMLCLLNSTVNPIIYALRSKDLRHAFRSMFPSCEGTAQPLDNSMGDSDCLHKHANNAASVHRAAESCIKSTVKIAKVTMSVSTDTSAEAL

Row | Compound | IC50 [1] | eLogD ([2]; S1 Data) | chromatographic logD ([2]; experimental, pH 7.4) | IC50 [3] | Papp at 5 h, 10 μM [4, 10] | Papp at 5 h, 10 μM [4, 11] | EC50 [5] | IC50 [6] | IC50 [7] | EC50 [8] | EC50 [9] | eLogD ([2]; experimental, pH 7.4) | chromatographic logD ([2]; pH 7.4, S1 Data)
1 | Cn1nccc1C(=O)Nc1nc2ccc(C#N)cc2n1CC(C)(C)C [Compound 29, O=C(Nc1n(CC(C)(C)C)c(c2n1)cc(C#N)cc2)c3n(C)ncc3] | > 10 µM | 3.39 | 3.4 | > 10 µM | 8.71 ×10⁻⁶ cm/s | 4.7 ×10⁻⁶ cm/s | > 10 µM | > 10 µM | > 10 µM | > 10 µM | > 10 µM |  | 
2 | Cn1nccc1C(=O)Nc1nc2ccc(C#N)cc2n1CC(F)(F)F [Compound 30, O=C(c1ccnn1C)Nc2nc(ccc(C#N)c3)c3n2CC(F)(F)F] | > 10 µM | 2.70 | 2.7 | > 10 µM | 27.9 ×10⁻⁶ cm/s | 7.9 ×10⁻⁶ cm/s | > 10 µM | > 10 µM | > 10 µM | > 10 µM | > 10 µM |  | 
3 | Cn1nc(C(F)(F)F)cc1C(=O)Nc1nc2ccc(C#N)cc2n1CC(F)(F)F [Compound 39, O=C(c1cc(C(F)(F)F)nn1C)Nc2nc(ccc(C#N)c3)c3n2CC(F)(F)F] | > 10 µM | 3.01 | 3 | > 10 µM | 2.4 ×10⁻⁶ cm/s | 10 ×10⁻⁶ cm/s | > 10 µM | > 10 µM | > 10 µM | > 10 µM | > 10 µM |  | 
4 | COc1ccc(C(=O)Nc2nc3ccc(C#N)cc3n2CC(F)(F)F)cn1 [Compound 43, O=C(c1ccc(OC)nc1)Nc2nc(ccc(C#N)c3)c3n2CC(F)(F)F] | > 10 µM |  |  | > 10 µM | 14.7 ×10⁻⁶ cm/s |  | > 10 µM | > 10 µM | > 10 µM | > 10 µM | > 10 µM | 4.9 | 4.85
5 | N#Cc1ccc2nc(NC(=O)c3ccnc(C(F)(F)F)c3)n(CC(F)(F)F)c2c1 [Compound 44, O=C(c1ccnc(C(F)(F)F)c1)Nc2nc(ccc(C#N)c3)c3n2CC(F)(F)F] | > 10 µM | 3.12 | 3.1 | > 10 µM | 2.32 ×10⁻⁶ cm/s | 2.3 ×10⁻⁶ cm/s | > 10 µM | > 10 µM | > 10 µM | > 10 µM | > 10 µM |  | 
6 | N#Cc1ccc2nc(NC(=O)c3ccc(C(F)(F)F)nc3)n(CC(F)(F)F)c2c1 [Compound 45, O=C(c1ccc(C(F)(F)F)nc1)Nc2nc(ccc(C#N)c3)c3n2CC(F)(F)F] | > 10 µM |  |  | > 10 µM | 5.43 ×10⁻⁶ cm/s |  | > 10 µM | > 10 µM | > 10 µM | > 10 µM | > 10 µM | 3.1 | 3.1
